Results from ChEMBL document CHEMBL1201862, “PubChem BioAssay data set” (2004).
Active and inactive are the calls of the source.

Legend:
[1] = molecular target: T1, Probable nicotinate-nucleotide adenylyltransferase (Staphylococcus aureus (strain N315), UniProt P65502); format: functional, Staphylococcus aureus subsp. aureus N315; details: read-out: IC50_Mean;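 as to IC50 Mean: confirmatory dose-response retesting of NadD inhibitor hits first found in an ultra-high-throughput screen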
[2] = molecular target: T2, Sentrin-specific protease 8 (Homo sapiens, UniProt Q96LD8); format: functional
T2 sequence (Q96LD8 whole entry): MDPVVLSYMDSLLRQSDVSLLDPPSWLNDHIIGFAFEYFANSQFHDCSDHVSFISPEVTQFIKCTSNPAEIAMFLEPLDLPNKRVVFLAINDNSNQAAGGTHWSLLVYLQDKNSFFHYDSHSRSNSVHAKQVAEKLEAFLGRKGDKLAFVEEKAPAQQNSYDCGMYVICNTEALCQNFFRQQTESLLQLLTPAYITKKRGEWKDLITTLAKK

[3] = molecular target: T1, Probable nicotinate-nucleotide adenylyltransferase; format: functional, Staphylococcus aureus subsp. aureus N315
[4] = molecular target: T2, Sentrin-specific protease 8; format: functional; remark: listed apart in the source
Protein RecA = molecular target: T3, Protein RecA (Mycobacterium tuberculosis, UniProt P9WHJ3); test: Fluorescence Cell-Free Homogeneous Dose Retest to Identify Inhibitors of RecA-Intein Splicing Activity. [Related pubchem assays (depositor defined):AID2097, AID2223, AID489010, AID492950]; format: functional
T3 sequence (P9WHJ3 whole entry): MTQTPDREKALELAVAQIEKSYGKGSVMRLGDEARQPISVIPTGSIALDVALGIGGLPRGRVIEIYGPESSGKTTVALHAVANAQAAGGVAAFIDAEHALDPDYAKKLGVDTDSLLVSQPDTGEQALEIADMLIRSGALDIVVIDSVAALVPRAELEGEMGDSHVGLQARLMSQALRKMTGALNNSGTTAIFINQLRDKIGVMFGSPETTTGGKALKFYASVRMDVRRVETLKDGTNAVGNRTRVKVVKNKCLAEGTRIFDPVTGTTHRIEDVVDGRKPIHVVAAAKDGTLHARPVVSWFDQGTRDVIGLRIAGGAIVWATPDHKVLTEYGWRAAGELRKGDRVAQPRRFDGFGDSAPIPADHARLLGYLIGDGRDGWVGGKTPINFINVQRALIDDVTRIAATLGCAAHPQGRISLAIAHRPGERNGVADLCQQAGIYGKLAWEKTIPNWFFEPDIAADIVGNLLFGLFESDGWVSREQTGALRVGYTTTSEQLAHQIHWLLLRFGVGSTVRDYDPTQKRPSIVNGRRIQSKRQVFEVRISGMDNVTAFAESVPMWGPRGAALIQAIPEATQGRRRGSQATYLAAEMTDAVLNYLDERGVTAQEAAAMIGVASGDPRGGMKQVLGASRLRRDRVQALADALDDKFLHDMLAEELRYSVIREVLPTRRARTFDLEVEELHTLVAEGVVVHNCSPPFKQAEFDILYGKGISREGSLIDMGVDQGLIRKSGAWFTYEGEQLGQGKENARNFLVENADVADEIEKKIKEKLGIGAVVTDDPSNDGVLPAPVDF

[5] = molecular target: T4, Replicative DNA helicase DnaB (Mycobacterium tuberculosis, UniProt P9WMR3); test: DnaB intein splicing inhibitors, dose response, biochemical, cell-free fluorescence (AID 449749); format: functional
T4 sequence (P9WMR3 whole entry): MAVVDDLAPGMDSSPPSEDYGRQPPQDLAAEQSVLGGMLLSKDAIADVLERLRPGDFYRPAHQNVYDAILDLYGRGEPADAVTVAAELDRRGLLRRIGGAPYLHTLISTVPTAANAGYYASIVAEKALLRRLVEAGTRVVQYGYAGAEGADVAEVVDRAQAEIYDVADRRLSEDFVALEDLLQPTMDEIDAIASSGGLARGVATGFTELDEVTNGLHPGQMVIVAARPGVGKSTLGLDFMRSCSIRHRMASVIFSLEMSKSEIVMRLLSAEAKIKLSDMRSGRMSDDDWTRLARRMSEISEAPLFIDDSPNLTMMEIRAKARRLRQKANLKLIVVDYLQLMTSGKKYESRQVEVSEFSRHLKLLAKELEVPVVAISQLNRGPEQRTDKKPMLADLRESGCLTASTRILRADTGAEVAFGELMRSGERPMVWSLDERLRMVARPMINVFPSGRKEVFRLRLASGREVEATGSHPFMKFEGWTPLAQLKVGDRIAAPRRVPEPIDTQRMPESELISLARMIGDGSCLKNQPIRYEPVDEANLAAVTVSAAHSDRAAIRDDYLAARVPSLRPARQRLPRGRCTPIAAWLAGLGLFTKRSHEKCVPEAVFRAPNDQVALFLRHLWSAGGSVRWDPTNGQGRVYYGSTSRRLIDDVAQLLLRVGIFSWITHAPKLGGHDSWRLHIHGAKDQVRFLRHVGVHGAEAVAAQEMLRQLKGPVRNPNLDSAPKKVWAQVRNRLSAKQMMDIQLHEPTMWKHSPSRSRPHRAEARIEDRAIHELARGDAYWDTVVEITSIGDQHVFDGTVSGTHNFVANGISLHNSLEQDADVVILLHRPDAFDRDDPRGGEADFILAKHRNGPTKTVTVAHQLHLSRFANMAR

[6] = ZM109 Env clade C HIV-1 fusion inhibitors, dose response, HeLa effector, CEM target cells, luciferase, cherry-pick (AID 652058); format: functional, cell-based
[7] = off-target signal loss in HeLa-CEM21 co-culture – HeLa F-luc CTL cells, cherry-picked, counter-screen for HIV-1 Env fusion inhibitor project, dose response (AID 652040); format: functional, cell-based;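 also: potency for signal decrease marking cytotoxic or nonspecific inhibition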
[8] = inhibitors of clade B AD8 Env fusion, dose response, cell-based, cherry-pick (AID 652062); format: functional;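 also: luciferase signal from cell-cell fusion driven by HIV-1 clade B AD8 Env; potency is for inhibitors of fusion seen as a drop in luminescence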
[9] = inhibitors of HIV Env-driven cell fusion, dose response, cherry-pick (AID 652057); format: functional, cell-based
[10] = molecular target: T5, Histone-lysine N-methyltransferase NSD2 (Homo sapiens, UniProt O96028); format: biochemical
T5 sequence (O96028 whole entry): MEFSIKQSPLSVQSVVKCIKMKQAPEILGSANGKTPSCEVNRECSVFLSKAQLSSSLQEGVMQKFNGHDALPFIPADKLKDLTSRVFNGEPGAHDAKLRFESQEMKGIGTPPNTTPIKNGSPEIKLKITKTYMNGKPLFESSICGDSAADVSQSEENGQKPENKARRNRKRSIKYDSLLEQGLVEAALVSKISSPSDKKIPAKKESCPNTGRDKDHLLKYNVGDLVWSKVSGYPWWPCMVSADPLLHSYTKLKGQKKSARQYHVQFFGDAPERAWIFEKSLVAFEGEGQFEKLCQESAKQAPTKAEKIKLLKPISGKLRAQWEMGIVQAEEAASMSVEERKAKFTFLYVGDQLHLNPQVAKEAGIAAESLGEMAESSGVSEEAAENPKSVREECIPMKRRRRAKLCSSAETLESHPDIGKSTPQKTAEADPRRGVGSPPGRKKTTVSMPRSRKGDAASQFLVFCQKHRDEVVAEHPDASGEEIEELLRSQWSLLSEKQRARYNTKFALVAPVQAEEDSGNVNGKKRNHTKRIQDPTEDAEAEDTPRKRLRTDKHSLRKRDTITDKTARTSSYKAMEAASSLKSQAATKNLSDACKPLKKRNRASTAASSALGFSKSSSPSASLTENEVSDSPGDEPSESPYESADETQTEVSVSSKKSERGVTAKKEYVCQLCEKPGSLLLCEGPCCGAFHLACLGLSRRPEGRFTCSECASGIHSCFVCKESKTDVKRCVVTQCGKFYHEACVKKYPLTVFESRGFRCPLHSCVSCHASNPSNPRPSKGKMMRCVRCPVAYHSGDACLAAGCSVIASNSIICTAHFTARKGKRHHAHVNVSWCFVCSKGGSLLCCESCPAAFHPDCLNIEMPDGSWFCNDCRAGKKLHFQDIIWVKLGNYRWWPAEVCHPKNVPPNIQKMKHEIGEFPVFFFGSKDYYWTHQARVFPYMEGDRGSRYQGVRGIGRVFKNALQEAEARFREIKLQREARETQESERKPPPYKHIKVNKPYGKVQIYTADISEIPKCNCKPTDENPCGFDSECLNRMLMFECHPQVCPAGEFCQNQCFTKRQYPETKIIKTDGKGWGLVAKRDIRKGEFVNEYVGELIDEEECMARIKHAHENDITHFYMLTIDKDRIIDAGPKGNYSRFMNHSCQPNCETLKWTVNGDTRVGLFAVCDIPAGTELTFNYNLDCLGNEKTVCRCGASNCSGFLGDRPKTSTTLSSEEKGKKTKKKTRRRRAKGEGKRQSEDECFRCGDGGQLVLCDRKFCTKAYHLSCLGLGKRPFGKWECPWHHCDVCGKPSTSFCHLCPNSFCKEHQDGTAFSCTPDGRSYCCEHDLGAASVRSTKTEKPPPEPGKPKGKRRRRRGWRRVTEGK

[11] = molecular target: T6, RNA-binding protein pos-1 (Caenorhabditis elegans, UniProt G5EF15); test: inhibitors of POS-1/mex-3 RNA binding, dose response, biochemical, fluorescence polarization (AID 1964);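 also: purified POS-1 fused to maltose binding protein made in E. coli; potency of compounds blocking POS-1 binding to fluorescent RNA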
T6 sequence (G5EF15 whole entry): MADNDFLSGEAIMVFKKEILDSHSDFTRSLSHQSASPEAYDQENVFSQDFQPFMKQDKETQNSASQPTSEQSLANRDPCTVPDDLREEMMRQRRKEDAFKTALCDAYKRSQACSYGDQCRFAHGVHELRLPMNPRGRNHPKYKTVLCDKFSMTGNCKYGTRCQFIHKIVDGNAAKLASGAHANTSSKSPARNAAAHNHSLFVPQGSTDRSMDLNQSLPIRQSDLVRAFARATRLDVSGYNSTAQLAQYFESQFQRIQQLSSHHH

[12] = molecular target: T7, Zinc finger protein mex-5 (Caenorhabditis elegans, UniProt Q9XUB2); test: MEX-5/TCR-2 RNA interaction inhibitors, dose response, biochemical, C. elegans, fluorescence polarization (AID 1960)
T7 sequence (Q9XUB2 whole entry): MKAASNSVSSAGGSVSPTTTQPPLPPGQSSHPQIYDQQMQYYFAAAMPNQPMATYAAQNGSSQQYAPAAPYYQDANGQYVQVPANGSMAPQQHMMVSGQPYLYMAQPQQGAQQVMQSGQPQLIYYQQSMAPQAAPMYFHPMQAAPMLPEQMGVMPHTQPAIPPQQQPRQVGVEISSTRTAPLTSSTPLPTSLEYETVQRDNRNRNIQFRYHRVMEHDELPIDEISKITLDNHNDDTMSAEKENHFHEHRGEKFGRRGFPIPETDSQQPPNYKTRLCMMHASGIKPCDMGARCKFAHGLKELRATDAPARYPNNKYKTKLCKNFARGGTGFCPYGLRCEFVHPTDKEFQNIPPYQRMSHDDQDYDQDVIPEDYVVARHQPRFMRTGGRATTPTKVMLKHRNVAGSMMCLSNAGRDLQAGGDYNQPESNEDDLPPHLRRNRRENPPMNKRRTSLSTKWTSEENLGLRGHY

T1 sequence (P65502 whole entry): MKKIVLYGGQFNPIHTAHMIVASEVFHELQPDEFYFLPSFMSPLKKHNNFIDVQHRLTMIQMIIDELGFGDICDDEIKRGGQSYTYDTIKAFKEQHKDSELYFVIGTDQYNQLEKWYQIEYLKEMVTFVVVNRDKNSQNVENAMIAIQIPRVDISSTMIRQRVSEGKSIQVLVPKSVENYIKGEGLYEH

Row | SMILES | AC50 [6] | AC50 [7] | AC50 [8] | AC50 [9] | AC50 [10] | further results
1 | CC1=NN(c2ccc(C)c(C)c2)C(=O)C1C(c1cccc(O)c1)C1C(=O)N(c2ccc(C)c(C)c2)N=C1C (stereo unspecified) |  |  |  |  |  | IC50 [1]: 15.1 µM (active); IC50 [2]: 7.94 µM (active); IC50 [3]: 6.63 µM (active); IC50 [4]: 14.7 µM (active); EC50 (Protein RecA): 0.468 µM (active); AC50 [5]: 1.14 µM (active)
2 | CCCN(CC(=O)Nc1ccccc1OC)C(=O)c1cccc(S(=O)(=O)NCc2ccccc2)c1 | 10.3 µM (active) | 5.73 µM (active) | 39.2 µM (active) | 4.37 µM (active) |  | 
3 | CCOc1ccccc1NC(=O)CSc1nc(O)c2c(C(F)(F)F)cc(-c3cccs3)nc2n1 |  |  |  |  | > 20 µM (inactive) | 
4 | CCCC1Nc2ccc(C(=O)O)cc2C2C=CCC12 (stereo unspecified) |  |  |  |  | 16.8 µM (active) | EC50 [11]: 23.8 µM (active); EC50 [12]: 14.5 µM (active)
5 | C=CCN(Cc1ccc(OC)c(OC)c1)C(=O)c1cc2cc(F)ccc2[nH]1 | 9.08 µM (active) | 11.8 µM (active) | 10.5 µM (active) | 6.22 µM (active) |  | 
6 | O=C(c1ccc(S(=O)(=O)Nc2ccc(F)cc2)cc1)N1CCN(C(=O)c2ccco2)CC1 | 10.4 µM (active) | 24.4 µM (active) | 2.86 µM (active) |  |  | 
